For data set [1], the system named is human SMN2-gene. The data set can be described thus: Full-length SMN2 transcript qPCR in tissues of adult SMA mice after intravenous peptide-PMO conjugate. In kind it is in vivo. From the text:
Smn1tm1Hung/wt; […]; […] Tissues were harvested one week post administration. […] Statistical significance determined by Student'[…]≤0.00005. […] ID NO.151), Exons 7-8 Rev: [NT] ID NO.152). […] [NT] ID NO.154). […] PolJ Forward: [NT] ID NO.155); PolJ Reverse: [NT]
Background: Quantitative PCR measures a nucleic acid by following its amplification.

Data set [2] is described as follows: Urinary kidney toxicity markers KIM-1 and NGAL by ELISA after a single IV dose of peptide-PMO conjugate. In kind it is in vivo. Particulars: 25 mg/kg single IV dose, C57/BL10 female mice. The method, then: Urinary and serum markers of kidney and liver toxicity were measured following a single dose administration of saline or the relevant peptide-PMO conjugate to 8 week old adult C57/BL10 female mice (N=6 per group). A bolus IV (tail vein) injection was administered and urine collected Day 2 and Day 7 after administration. Animals were then scarified prior to necropsy in which kidney, liver, diaphragm, heart, TA, gastric and serum were collected. Urine clinical indicators: KIM-1, NGAL were measured by ELISA (R&D cat #MKM100) with samples diluted to fit within standard curve. Values were normalised to urinary creatinine levels (Harwell) to account for urine protein concentration.
Group 2—25 mg/kg Pip8b4-PMO SMN
Group 3—25 mg/kg DPEP5.17-PMO SMN
(In general: An ELISA detects its analyte on a solid surface through an enzyme-linked reagent.)

The subject of data set [3] is SMN2 exon 7 inclusion in GM03813 SMA patient fibroblasts. The data set is described as follows: Cell screening of peptide-PMO conjugates for SMN2 exon 7 inclusion in human SMA patient fibroblast cell culture. In kind it is cell-based. The procedure: In order to generate further peptide candidates containing a glycosylated Serine residue for in vivo evaluation, the inventors synthesized a range of similarly glycosylated peptides, conjugated them to the same PMO therapeutic and screened the resultant P-PMO conjugates in human SMA patient fibroblast cell culture, which assesses their ability to enter cell nuclei to give exon inclusion.
GM03813 (Coriell Institute) derived from SMA type I patient fibroblast were seeded out at 2500 cells/well in 100 μl Dulbecco's modified Eagle's medium (DMEM) with GlutaMAX and 5% fetal bovine serum (FBS) (Life Technologies, Inc.) in 96 well plates, and incubated for 16 h in a cell culture incubator (37° C., 5% CO2, 100% rel. humidity). On the next day cells were then treated with 10 μl P-PMO at different concentrations (in water) in duplicate for 24 hours. After removal of the supernatant, cells were washed once with PBS-buffer and were lysed in lysis buffer (10 mM Tris, 3 mM MgCl2, 1 mM CaCl2), 1% Triton X-100, 200 u/ml DNase I and 200 u/ml Proteinase K) for 10 min. Afterwards the lysate were transferred into a 96-well plate (Eppendorf twintec) and incubated at 75° C. for 15 min and subsequently cooled to 4° C. and used immediately. The mRNA levels of SMN2 FL, SMN2 Δ7 and GAPDH were quantified using Taqman-based qRT-PCR (Superscript® III Platinium® One Step qRT-PCR, Thermo Fisher) and SMN2 specific Primers and probes (purchased from IDT Integrated DNA Technologies). (19) SMN2 FL and Δ7 mRNAs were normalized to GAPDH. […]

Where [4] appears, read: adult SMA mice, 2x15 mg/kg IV approx. 48 hours apart, tissue 7 days post final administration, normalised to saline treated controls, Central Nervous System.
Where [5] appears, read: adult SMA mice, 2x15 mg/kg IV approx. 48 hours apart, tissue 7 days post final administration, normalised to saline treated controls, spinal cord.

Marks after values point to notes of the source that are not given here.

Turning to Ac-RXRRBRR FS*RBRXR-B [Peptide 17], the “activity in cerebellum and cortex compared with peptide 6” value in data set [1] (FIG. 7, 2x15 mg/kg IV 48 hours apart, adult intermediate SMA mice) was “equivalent or improved activity”. Moreover, the “level of full length transcript (FLSMN) in all tissues” value in data set [1] (FIG. 7, 2x15 mg/kg IV 48 hours apart, adult intermediate SMA mice, central spinal cord, peripheral skeletal muscle and liver) is listed as greater than 1 fold. Also, the “cell penetration in several compartments of the central nervous system and the skeletal muscle compared with currently available peptides 1-7” value in data set [1] (Table 3 data) was “increased”. Also, in data set [1] (setting [4]), the “full-length SMN2 transcripts, mean expression level, Brainstem” value came to 1.2; the “full-length SMN2 transcripts, mean expression level, Cerebellum” value is listed as 1.19*; the “full-length SMN2 transcripts, mean expression level, Cortex” value is on record as 1.27*. For the same substance, the “full-length SMN2 transcripts, mean expression level, Liver” value in data set [1] (adult SMA mice, 2x15 mg/kg IV approx. 48 hours apart, tissue 7 days post final administration, normalised to saline treated controls, Off Target) was found to be 3.78. The “full-length SMN2 transcripts, mean expression level, Gastroc” value in data set [1] (adult SMA mice, 2x15 mg/kg IV approx. 48 hours apart, tissue 7 days post final administration, normalised to saline treated controls, Skeletal Muscle (gastrocnemius)) was 3.25****. For the same substance, the “full-length SMN2 transcripts, mean expression level, Quad” value in data set [1] (adult SMA mice, 2x15 mg/kg IV approx. 48 hours apart, tissue 7 days post final administration, normalised to saline treated controls, Skeletal Muscle (quadriceps)) is 2.68***. The “full-length SMN2 transcripts, mean expression level, TA” value in data set [1] (adult SMA mice, 2x15 mg/kg IV approx. 48 hours apart, tissue 7 days post final administration, normalised to saline treated controls, Skeletal Muscle (tibialis anterior)) is recorded as 3.00***. In data set [1] (setting [5]), the “full-length SMN2 transcripts, mean expression level, Cervical” value is listed as 1.41*; the “full-length SMN2 transcripts, mean expression level, Lumbar” value was found to be 1.1; the “full-length SMN2 transcripts, mean expression level, Thoracic” value is reported as 1.39**. In addition, the “increase in cell penetration / exon inclusion compared with the currently available peptide conjugated to the same antisense oligonucleotide” value in data set [1] (in vivo, Table 3 data, peptide 17 versus peptide 6, peptide 14 versus peptide 2) is reported as “up to 60.2%”. For the same substance, the “urinary KIM-1 level normalised to creatinine, compared with peptide 6” value in data set [2] (2 days after administration) was “far lower”. In addition, in data set [2] (7 days post administration), the “urinary KIM-1 level normalised to creatinine, compared with peptide 6” value was “lower” and the “urinary NGAL level normalised to creatinine, compared with peptide 6” value is given as “lower”.
In the case of Ac-RBRBRS*RBRBR-G [Peptide 70], the “cell activity (SMN2 exon 7 inclusion)” value in data set [3] (second screen, FIG. 5, qPCR, 667 nM and 2 μM) is “remarkably good activity”.
As to Ac-RXRRBRRXRRXRBRXRS*FL-G [Peptide 48], the “cell activity (SMN2 exon 7 inclusion) relative to peptide 14” value in data set [3] (first screen, FIG. 4, qPCR, 667 nM and 2 μM) is given as “almost as active as the first peptide”.
Regarding Ac-RXRRBRRZS*RBRXR-B [Peptide 73], the “cell activity (SMN2 exon 7 inclusion) at low doses” value in data set [3] (third screen, FIG. 6) is reported as “good activity at low doses”. For the same substance, in data set [3] (third screen, FIG. 6, 4 μM, 2 μM, 1 μM, 500 nM, 250 nM), the “cell activity (SMN2 exon 7 inclusion) relative to S* peptide” value is reported as “greatly improved alteration in activity levels”.
